“And” between values parts separate entries of the source, which are not always exact repeats. Equal entries are not always repeated.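 Test compounds were applied to cells in 96-well plates for 48 hours at 5 doses. GI50: concentration for 50% inhibition of growth.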 The source made the active and inactive calls. Rule as the data show it: active = GI50 up to about 1.1 µM and inactive = higher.
Key:
Experiment in all cases: NCI anticancer screen, dose series, 48 h
[1] = system: NCI-H226
[2] = system: EKVX
[3] = system: Hs-578T
[4] = system: CAKI-1
[5] = system: HCT-15
[6] = system: SK-MEL-28
[7] = system: T47D
[8] = system: SNB-75
[9] = system: UACC-257
[10] = system: SF-268
[11] = system: HCC 2998
[12] = system: K562
[13] = system: UO-31
[14] = system: SR
[15] = system: SK-MEL-5
[16] = system: CCRF-CEM
[17] = system: NCI/ADR-RES
[18] = system: OVCAR-4
[19] = system: SK-OV-3
[20] = system: A498
[21] = system: MDA-MB-435
[22] = system: DU-145
[23] = system: TK-10
[24] = system: RPMI-8226
[25] = system: OVCAR-8
[26] = system: HCT-116
[27] = system: SNB-19
[28] = system: UACC-62
[29] = system: NCI-H460
[30] = system: IGROV-1
[31] = system: PC-3
[32] = system: U-251
[33] = system: COLO 205
[34] = system: HOP-62
[35] = system: SK-MEL-2
[36] = system: KM12
[37] = system: M14
[38] = system: SF-295
[39] = system: SF-539
[40] = system: HL-60
[41] = system: HOP-92
[42] = system: MDA-MB-231
[43] = system: RXF 393
[44] = system: HT-29
[45] = system: 786-0
[46] = system: MCF7
[47] = system: LOX IMVI
[48] = system: SW-620
[49] = system: OVCAR-5
[50] = system: Malme-3M
[51] = system: NCI-H23
[52] = system: MDA-N
[53] = system: ACHN
[54] = system: MOLT-4
[55] = system: A549

For `O=C(NC1CCCCC1)c1cc2ccccc2cc1O`, the GI50 [1] was 17.3 µM (inactive), the GI50 [2] was 34.1 µM (inactive) and the GI50 [3] was 36.2 µM (inactive). For the same molecule, the GI50 [4] was 47 µM (inactive), the GI50 [5] was 26.4 µM and the GI50 [6] was 49.3 µM (inactive). The GI50 [7] was 42.6 µM (inactive), the GI50 [8] was 45.5 µM (inactive) and the GI50 [9] was 36.6 µM (inactive). For the same molecule, the GI50 [10] was 46.1 µM (inactive), the GI50 [11] was 23.5 µM (inactive) and the GI50 [12] was 27.7 µM (inactive). The GI50 [13] was 32.4 µM (inactive), the GI50 [14] was 38.7 µM (inactive) and the GI50 [15] was 19.6 µM (inactive). For the same molecule, the GI50 [16] was 38.9 µM (inactive), the GI50 [17] was 17.7 µM (inactive) and the GI50 [18] was 20.3 µM (inactive). The GI50 [19] was 49.1 µM (inactive), the GI50 [20] was 25.4 µM (inactive) and the GI50 [21] was 29.2 µM (inactive). The GI50 [22] was 43.2 µM (inactive), the GI50 [23] was 73.3 µM (inactive) and the GI50 [24] was 17.7 µM (inactive). The GI50 [25] was 26.2 µM (inactive), the GI50 [26] was 18.7 µM (inactive) and the GI50 [27] was 31.1 µM (inactive). The GI50 [28] was 27 µM (inactive), the GI50 [29] was 26.1 µM (inactive) and the GI50 [30] was 35.5 µM (inactive). For the same molecule, the GI50 [31] was 28.8 µM (inactive), the GI50 [32] was 44.2 µM (inactive) and the GI50 [33] was 53.1 µM (inactive). The GI50 [34] was 35.7 µM (inactive), the GI50 [35] was 23.3 µM (inactive) and the GI50 [36] was 34.2 µM (inactive). The GI50 [37] was 21.9 µM (inactive), the GI50 [38] was 29.9 µM (inactive) and the GI50 [39] was 24 µM (inactive). The GI50 [40] was 22.6 µM (inactive), the GI50 [41] was 22.3 µM (inactive) and the GI50 [42] was 61 µM (inactive). The GI50 [43] was 30.5 µM (inactive), the GI50 [44] was 20.4 µM (inactive) and the GI50 [45] was 26.3 µM (inactive). The GI50 [46] was 39.2 µM (inactive), the GI50 [47] was 38.8 µM (inactive) and the GI50 [48] was 35.2 µM (inactive).

`O=C1N/C(=N/N=C\C(O)C(O)C(O)CO)N/C1=C/c1ccccc1` (stereo not given) was tested, and the GI50 [1] was > 100 µM (inactive), the GI50 [2] was > 100 µM (inactive) and 85.7 µM (inactive) and the GI50 [3] was > 100 µM (inactive). For the same molecule, the GI50 [4] was > 100 µM (inactive), the GI50 [8] was > 100 µM (inactive) and the GI50 [49] was > 100 µM (inactive). For the same molecule, the GI50 [9] was > 100 µM (inactive), the GI50 [10] was > 100 µM (inactive) and 62.7 µM (inactive) and the GI50 [11] was 51.6 µM (inactive). For the same molecule, the GI50 [13] was > 100 µM (inactive), the GI50 [50] was 82 µM (inactive) and the GI50 [17] was > 100 µM (inactive). For the same molecule, the GI50 [19] was > 100 µM (inactive), the GI50 [51] was > 100 µM (inactive) and the GI50 [52] was 53 µM (inactive). For the same molecule, the GI50 [22] was > 100 µM (inactive), the GI50 [23] was > 100 µM (inactive) and the GI50 [25] was 65 µM (inactive). For the same molecule, the GI50 [53] was > 100 µM (inactive), the GI50 [27] was > 100 µM (inactive) and the GI50 [32] was > 100 µM (inactive) and 52.5 µM (inactive). The GI50 [33] was > 100 µM (inactive), the GI50 [34] was > 100 µM (inactive) and the GI50 [35] was > 100 µM (inactive). The GI50 [54] was 24 µM (inactive) and 39.6 µM (inactive), the GI50 [55] was > 100 µM (inactive) and the GI50 [42] was 60 µM (inactive). For the same molecule, the GI50 [43] was > 100 µM (inactive), the GI50 [44] was 50.1 µM (inactive) and the GI50 [45] was 64 µM (inactive). The GI50 [46] was 34.4 µM (inactive) and 32.6 µM (inactive) and the GI50 [47] was > 100 µM (inactive).
